Source: patent US9480638B2, “Cosmetic composition containing extracts of Adenophora triphylla var. japonica Hara, Angelica tenuissima and medicinal herbs” (AMOREPACIFIC CORPORATION, priority 2008, dated 2016)

How the values were obtained:
[1] = Test of antioxidant effect (DPPH test); format: biochemical; conditions: sample concentration at which absorbance at 540 nm is reduced by 50%; 100 μM DPPH in ethanol, 37° C., 30 minutes
Description: To confirm the antioxidant effect of the composition according to the present invention, the DPPH oxidation inhibitory effect of the composition was measured. As a control, the synthetic antioxidant Trolox was used. […] The reaction solution was allowed to react at 37° C. for 30 minutes, and then measured for absorbance at 540 nm. As a control sample, the widely used synthetic antioxidant Trolox was used. In Table 1, IC50 means the sample concentration at which the absorbance is reduced by 50%.

PPARα = target: T1, PPARα (Mus musculus, UniProt P23204); experiment: PPARα activation, PPRE promoter/luciferase reporter in transfected HaCaT cells; conditions: 10 uM positive control, PPARα expression plasmid + PPRE reporter, Control = 100
T1 sequence (P23204 1-468): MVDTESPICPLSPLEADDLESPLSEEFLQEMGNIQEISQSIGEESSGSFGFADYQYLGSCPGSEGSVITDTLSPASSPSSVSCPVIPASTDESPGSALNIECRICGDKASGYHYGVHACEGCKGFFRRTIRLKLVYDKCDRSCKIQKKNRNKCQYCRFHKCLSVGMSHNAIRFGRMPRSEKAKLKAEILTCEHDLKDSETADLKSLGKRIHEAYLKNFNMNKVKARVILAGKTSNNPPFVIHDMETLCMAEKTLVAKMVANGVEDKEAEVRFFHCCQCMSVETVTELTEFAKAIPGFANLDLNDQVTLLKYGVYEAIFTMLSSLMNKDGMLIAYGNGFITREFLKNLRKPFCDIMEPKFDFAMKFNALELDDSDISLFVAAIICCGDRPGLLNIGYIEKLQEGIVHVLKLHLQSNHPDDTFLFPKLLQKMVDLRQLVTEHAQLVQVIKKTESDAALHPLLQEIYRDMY
Description: Human keratinocyte HaCaT cells were subcultured in 10% fetal bovine serum-containing DMEM medium, which is a phenol red-free medium, in order to eliminate the effect caused by the phenol red's estrogen.
HaCaT cells were seeded into a 24-well plate at a density of 5×10^4 cells/well, cultured for 24 hours, and then transiently transfected with the plasmid genes. […] As a negative control group, a group treated with ethanol used to dissolve the samples was used. After 24 hours of culture, the cells were washed with PBS, harvested and measured for luciferase activity.

SMILES	IC50 (DPPH analysis) [1] [ppm]	luciferase activity (PPARα)
Cc1c(C)c2c(c(C)c1O)CCC(C)(C(=O)O)O2 (centres unmarked) [Trolox]	65	
Cc1cccc(Nc2cc(Cl)nc(SCC(=O)O)n2)c1C [WY-14643, Wy-14,643]		300
